In US20220395575A1, “COMBINATION THERAPY WITH PROTEIN KINASE B ACTIVATION INHIBITOR TO TREAT CANCER” (H. LEE MOFFITT CANCER CENTER AND RESEARCH INSTITUTE, INC., priority 2019, published 2022):

Tests used:
Type in all cases: cell-based
Settings in all cases: in combination with Akt activation inhibitor TCN-P
[1] = test system: THP1 human leukemic cells; test: viability of THP1 human leukemic cells, combination with TCN-P
[2] = test system: U937 human leukemic cells; test: viability of U937 human leukemic cells, combination with TCN-P
[3] = test system: HL60 human leukemic cells; test: viability of HL60 human leukemic cells, combination with TCN-P

Measured: synergy with TCN-P to inhibit viability

C#Cc1cccc(Nc2ncnc3cc(OC)c(OCCCCCCC(=O)NO)cc23)c1 [CUDC-101]
synergizes with TCN-P: all assays above

Cc1cnc(NC(=O)Nc2cc(Br)c(C)cc2OC[C@@H]2CNCCO2)cn1 [LY2603618, rabusertib]
synergizes with TCN-P: all assays above
